Experimental data as given in ChEMBL document CHEMBL1201862, “PubChem BioAssay data set” (2004).
The source made the active and inactive calls.

What was measured:
[1] = target: T1, Probable nicotinate-nucleotide adenylyltransferase (Staphylococcus aureus (strain N315), UniProt P65502); type: functional, Staphylococcus aureus subsp. aureus N315; details: read-out: IC50_Mean;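 as to IC50 Mean: confirmatory dose-response retesting of NadD inhibitor hits first found in an ultra-high-throughput screen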
T1 sequence (P65502 whole entry): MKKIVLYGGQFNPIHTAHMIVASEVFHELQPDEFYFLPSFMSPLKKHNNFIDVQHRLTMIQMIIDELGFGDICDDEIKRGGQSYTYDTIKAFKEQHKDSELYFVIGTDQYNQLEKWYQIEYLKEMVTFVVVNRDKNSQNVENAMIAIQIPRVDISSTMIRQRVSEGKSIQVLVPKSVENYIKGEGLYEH

[2] = target: T1, Probable nicotinate-nucleotide adenylyltransferase; type: functional, Staphylococcus aureus subsp. aureus N315
[3] = tested on: H9c2; test: cells; type: functional, cell-based; details: Rattus norvegicus, H9c2, Myocardium;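 also: confirmatory concentration-response retest of ultra-high-throughput screening hits for modulation of myocardial damage; cell death induced by hydrogen peroxide oxidative stress; compound pretreatment for 60 min then peroxide exposure for 2 h; potency is for protecting the cells against peroxide damage rather than for killing them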
[4] = target: Melanocortin receptor 4 (Homo sapiens, UniProt P32245); type: functional, cell-based;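 also: Cell-based assay with luminescence read-out, confirmatory dose-response testing for agonist activity of biased ligands at MC4R; human U2OS cells with tagged receptor and beta-arrestin; potency of agonists that increase receptor coupling to beta-arrestin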
Chain of Melanocortin receptor 4 (P32245 whole entry): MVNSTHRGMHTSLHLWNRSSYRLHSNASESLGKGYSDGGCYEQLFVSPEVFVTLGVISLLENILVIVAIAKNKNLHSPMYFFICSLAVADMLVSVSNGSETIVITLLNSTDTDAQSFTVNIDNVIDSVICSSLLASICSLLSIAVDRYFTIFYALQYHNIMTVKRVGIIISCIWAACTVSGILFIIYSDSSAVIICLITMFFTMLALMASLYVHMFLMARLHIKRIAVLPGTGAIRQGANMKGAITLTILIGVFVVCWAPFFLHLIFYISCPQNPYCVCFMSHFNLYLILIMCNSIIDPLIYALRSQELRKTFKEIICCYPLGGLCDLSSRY

[5] = cells; type: functional, cell-based
[6] = cells; type: functional, cell-based; remark: listed apart in the source
[7] = target: T2, Sentrin-specific protease 6 (Homo sapiens, UniProt Q9GZR1); test: SAR Analysis of small molecule inhibitors of Sentrin-specific protease 6 (SENP6) using a Luminescent assay. [Related pubchem assays (depositor defined):AID2582, AID2599]; type: functional
T2 sequence (Q9GZR1 whole entry): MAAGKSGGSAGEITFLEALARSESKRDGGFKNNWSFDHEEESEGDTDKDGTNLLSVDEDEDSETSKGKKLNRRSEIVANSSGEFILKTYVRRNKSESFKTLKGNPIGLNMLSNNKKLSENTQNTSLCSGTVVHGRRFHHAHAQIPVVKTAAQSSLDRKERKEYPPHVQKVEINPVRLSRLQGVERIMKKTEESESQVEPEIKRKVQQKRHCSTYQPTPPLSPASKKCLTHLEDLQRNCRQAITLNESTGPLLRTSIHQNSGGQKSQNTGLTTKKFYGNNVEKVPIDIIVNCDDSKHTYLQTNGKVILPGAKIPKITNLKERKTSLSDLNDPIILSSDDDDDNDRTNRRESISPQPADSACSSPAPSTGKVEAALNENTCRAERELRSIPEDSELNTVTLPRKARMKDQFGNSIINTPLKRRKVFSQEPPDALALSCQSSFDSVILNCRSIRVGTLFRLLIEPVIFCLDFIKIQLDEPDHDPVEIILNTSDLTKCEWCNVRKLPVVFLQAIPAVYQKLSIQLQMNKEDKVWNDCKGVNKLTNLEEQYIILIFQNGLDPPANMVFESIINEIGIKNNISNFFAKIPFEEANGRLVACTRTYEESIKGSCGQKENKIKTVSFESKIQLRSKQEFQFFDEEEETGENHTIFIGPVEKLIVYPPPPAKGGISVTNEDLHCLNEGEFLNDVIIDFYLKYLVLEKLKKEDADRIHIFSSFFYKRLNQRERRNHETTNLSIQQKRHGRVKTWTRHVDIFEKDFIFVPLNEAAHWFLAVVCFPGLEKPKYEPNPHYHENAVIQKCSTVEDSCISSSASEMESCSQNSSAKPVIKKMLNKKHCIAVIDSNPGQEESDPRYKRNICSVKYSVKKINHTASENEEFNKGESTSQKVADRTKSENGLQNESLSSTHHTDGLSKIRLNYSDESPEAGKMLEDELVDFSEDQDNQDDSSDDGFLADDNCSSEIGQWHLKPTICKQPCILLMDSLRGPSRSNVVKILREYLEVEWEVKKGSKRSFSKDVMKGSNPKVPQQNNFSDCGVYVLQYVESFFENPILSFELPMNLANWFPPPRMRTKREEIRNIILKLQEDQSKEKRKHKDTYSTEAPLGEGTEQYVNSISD

[8] = target: T3, Caspase-3 (Homo sapiens, UniProt P42574); test: SAR Analysis of small molecule inhibitors of Sentrin-specific proteases (SENPs) using a Caspase-3 Selectivity assay. [Related pubchem assays (depositor defined):AID2540, AID2599, AID434973, AID489001]; type: functional
T3 sequence (P42574 whole entry): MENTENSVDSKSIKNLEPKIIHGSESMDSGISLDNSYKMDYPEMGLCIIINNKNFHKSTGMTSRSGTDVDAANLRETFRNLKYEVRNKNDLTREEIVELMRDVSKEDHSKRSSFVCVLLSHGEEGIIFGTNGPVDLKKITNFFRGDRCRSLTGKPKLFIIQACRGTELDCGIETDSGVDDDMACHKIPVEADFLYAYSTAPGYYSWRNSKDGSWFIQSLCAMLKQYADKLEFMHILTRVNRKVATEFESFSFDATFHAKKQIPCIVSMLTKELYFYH

[9] = target: T4, Sentrin-specific protease 8 (Homo sapiens, UniProt Q96LD8); test: SENP8 protease inhibitors, SAR follow-up, biochemical, luminescence (AID 504501); type: functional
T4 sequence (Q96LD8 whole entry): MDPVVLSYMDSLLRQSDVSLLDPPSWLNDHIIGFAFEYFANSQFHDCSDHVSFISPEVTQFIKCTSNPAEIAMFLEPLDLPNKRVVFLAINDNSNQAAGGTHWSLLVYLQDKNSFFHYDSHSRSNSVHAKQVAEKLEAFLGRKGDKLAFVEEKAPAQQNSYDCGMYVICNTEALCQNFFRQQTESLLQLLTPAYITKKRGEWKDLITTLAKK

[10] = target: T5, Sentrin-specific protease 7 (Homo sapiens, UniProt Q9BQF6); test: SENP7 protease inhibitors, SAR follow-up, biochemical, luminescence (AID 504497); type: functional
T5 sequence (Q9BQF6 whole entry): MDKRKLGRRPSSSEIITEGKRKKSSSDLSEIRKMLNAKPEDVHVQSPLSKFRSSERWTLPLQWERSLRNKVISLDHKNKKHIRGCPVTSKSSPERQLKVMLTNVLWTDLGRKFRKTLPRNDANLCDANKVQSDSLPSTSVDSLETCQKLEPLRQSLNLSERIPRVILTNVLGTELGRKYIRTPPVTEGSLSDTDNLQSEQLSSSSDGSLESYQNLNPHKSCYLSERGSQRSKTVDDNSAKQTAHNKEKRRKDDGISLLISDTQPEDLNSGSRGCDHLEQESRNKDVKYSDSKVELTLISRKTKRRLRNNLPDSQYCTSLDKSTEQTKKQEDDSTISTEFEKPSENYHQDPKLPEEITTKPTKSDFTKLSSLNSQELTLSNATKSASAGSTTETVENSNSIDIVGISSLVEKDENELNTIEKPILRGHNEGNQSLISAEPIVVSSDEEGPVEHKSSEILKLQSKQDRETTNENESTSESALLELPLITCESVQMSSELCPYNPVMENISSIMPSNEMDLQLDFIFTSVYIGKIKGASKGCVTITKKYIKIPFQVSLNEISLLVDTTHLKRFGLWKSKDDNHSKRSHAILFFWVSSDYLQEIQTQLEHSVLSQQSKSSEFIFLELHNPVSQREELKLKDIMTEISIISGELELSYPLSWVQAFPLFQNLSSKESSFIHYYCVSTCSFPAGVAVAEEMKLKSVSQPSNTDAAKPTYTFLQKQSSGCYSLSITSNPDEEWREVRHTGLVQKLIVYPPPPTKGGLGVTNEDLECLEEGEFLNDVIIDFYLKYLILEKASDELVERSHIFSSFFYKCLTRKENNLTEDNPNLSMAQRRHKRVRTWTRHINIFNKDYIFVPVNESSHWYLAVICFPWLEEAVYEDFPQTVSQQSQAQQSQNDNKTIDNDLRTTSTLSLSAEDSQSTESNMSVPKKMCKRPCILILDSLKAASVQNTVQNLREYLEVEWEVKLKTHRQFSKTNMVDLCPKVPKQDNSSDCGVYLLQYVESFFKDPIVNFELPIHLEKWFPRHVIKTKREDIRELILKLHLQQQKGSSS

[11] = tested on: HeLa; test: HeLa cell cytotoxicity, dose response, cytotoxicity control, ATP luminescence, cherry-pick samples (AID 687004); type: functional, cell-based; details: Homo sapiens
[12] = target: Prothrombin (Bos taurus, UniProt P00735); test: thrombin inhibition, dose response, biochemical, fluorescence polarization, uHTS hits (AID 602369); type: functional
[13] = target: 26S proteasome non-ATPase regulatory subunit 14 (Homo sapiens, UniProt O00487); test: inhibition of proteasome subunit RPN11 – biochemical, fluorescence polarization, uHTS hits, confirmation (AID 602368); type: functional
Chain of 26S proteasome non-ATPase regulatory subunit 14 (O00487 whole entry): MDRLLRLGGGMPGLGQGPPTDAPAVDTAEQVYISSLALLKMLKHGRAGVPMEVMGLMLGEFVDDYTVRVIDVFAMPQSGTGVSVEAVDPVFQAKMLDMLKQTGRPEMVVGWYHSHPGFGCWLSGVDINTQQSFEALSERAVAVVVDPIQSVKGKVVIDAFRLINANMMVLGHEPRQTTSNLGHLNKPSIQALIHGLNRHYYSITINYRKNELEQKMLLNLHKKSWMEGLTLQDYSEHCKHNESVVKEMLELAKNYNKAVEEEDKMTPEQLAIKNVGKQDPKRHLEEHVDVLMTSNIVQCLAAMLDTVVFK

[14] = target: 72 kDa type IV collagenase (Homo sapiens, UniProt P08253); test: Dose Response validation of uHTS RPN11 inhibitor hits using a MMP-2 Fluorescence assay.; type: functional
Chain of 72 kDa type IV collagenase (P08253 whole entry, the tested form may be a part): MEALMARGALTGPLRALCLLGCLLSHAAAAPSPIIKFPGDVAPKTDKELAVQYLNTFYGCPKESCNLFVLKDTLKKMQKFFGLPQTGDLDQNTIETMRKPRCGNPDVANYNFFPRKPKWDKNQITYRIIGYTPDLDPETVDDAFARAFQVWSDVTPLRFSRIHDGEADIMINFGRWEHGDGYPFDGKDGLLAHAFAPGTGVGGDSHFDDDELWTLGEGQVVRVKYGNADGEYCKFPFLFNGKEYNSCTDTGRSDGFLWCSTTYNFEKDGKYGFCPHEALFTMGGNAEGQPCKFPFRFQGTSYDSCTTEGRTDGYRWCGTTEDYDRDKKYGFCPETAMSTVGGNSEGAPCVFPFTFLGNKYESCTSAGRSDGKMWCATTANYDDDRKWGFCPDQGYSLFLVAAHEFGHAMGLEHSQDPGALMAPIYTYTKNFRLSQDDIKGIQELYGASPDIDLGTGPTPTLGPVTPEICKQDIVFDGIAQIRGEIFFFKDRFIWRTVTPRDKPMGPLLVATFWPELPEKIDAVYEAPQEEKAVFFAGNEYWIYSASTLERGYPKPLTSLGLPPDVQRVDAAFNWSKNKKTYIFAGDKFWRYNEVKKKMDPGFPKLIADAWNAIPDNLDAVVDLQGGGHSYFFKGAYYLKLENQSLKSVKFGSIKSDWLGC

[15] = target: T6, Carboxy-terminal domain RNA polymerase II polypeptide A small phosphatase 1 (Homo sapiens, UniProt Q9GZU7); test: inhibitors of CTDSP1, concentration-response testing, biochemical assay, absorbance-based, actives from ultra-high-throughput screening (AID 540297); type: functional
T6 sequence (Q9GZU7 whole entry): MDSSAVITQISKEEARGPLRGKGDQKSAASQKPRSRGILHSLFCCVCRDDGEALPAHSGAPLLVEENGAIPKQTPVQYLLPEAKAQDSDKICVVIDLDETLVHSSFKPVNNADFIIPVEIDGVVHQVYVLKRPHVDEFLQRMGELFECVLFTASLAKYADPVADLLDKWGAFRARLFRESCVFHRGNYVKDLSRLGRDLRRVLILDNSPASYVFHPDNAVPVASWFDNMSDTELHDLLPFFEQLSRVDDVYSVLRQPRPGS

[16] = target: Induced myeloid leukemia cell differentiation protein Mcl-1 (Homo sapiens, UniProt Q07820); type: functional
Chain of Induced myeloid leukemia cell differentiation protein Mcl-1 (Q07820 whole entry): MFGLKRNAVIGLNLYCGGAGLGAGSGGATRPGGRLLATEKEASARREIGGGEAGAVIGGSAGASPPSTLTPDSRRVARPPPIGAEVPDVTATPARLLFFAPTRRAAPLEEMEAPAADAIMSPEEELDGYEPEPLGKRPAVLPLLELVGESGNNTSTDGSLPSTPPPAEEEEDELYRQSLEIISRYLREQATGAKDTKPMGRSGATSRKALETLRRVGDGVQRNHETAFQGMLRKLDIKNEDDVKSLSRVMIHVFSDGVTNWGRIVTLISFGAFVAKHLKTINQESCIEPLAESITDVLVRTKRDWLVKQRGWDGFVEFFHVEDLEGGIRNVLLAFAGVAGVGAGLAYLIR

[17] = tested on: HeLa; test: HeLa cell cytotoxicity, dose response, cytotoxicity control for MITF activator project, CellTiter-Glo luminescence, cherry-pick samples (AID 540259); type: functional, cell-based; details: Homo sapiens
[18] = target: T7, Nuclear receptor subfamily 0 group B member 1 (Homo sapiens, UniProt P51843); type: functional, cell-based;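 also: HEK293T cells transfected with SF-1 and DAX-1 plus StAR promoter luciferase reporter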
T7 sequence (P51843 whole entry): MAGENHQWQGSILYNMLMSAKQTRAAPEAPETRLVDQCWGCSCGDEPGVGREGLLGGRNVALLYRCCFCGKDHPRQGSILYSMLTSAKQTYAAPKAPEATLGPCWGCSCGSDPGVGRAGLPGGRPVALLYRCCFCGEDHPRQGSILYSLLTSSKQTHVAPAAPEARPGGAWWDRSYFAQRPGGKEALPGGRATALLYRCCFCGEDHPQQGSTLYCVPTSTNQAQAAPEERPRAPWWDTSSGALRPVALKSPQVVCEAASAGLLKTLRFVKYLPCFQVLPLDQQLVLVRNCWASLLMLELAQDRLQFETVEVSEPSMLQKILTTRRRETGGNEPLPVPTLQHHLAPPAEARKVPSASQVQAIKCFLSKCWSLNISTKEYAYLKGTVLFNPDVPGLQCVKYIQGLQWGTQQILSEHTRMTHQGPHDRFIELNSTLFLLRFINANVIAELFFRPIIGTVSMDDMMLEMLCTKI

[19] = cells; type: functional, cell-based; remark: listed apart in the source
[20] = target: Cytochrome P450 2C19 (Homo sapiens, UniProt P33261); test: Cytochrome panel assay with activity outcomes. Panel member name: p450-cyp2c19 Compounds with AC50 equal or less than 10 uM are considered active; type: functional; details: read-out: AC50
Chain of Cytochrome P450 2C19 (P33261 whole entry): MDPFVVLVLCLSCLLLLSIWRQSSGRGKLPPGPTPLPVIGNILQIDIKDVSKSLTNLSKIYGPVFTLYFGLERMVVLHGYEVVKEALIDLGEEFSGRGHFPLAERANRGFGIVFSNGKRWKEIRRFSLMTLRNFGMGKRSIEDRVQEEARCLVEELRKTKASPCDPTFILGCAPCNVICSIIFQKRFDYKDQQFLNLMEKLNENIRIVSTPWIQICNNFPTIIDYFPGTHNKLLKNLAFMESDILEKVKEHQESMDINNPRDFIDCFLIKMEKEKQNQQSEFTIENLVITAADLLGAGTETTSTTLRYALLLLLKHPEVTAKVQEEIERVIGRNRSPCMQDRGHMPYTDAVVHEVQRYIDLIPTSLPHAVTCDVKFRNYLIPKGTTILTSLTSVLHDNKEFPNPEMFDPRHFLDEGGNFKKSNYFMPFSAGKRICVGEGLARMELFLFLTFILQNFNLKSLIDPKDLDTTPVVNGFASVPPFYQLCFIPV

[21] = Luminescence Cell-Based Dose Response HTS to Identify Activators of Luciferase Translation or Activity in H4 […] Cells. [Related pubchem assays: 1829 (Project Summary), 1814 (Primary HTS)]; type: functional
[22] = target: Cytochrome P450 2C9 (Homo sapiens, UniProt P11712)
Chain of Cytochrome P450 2C9 (P11712 whole entry): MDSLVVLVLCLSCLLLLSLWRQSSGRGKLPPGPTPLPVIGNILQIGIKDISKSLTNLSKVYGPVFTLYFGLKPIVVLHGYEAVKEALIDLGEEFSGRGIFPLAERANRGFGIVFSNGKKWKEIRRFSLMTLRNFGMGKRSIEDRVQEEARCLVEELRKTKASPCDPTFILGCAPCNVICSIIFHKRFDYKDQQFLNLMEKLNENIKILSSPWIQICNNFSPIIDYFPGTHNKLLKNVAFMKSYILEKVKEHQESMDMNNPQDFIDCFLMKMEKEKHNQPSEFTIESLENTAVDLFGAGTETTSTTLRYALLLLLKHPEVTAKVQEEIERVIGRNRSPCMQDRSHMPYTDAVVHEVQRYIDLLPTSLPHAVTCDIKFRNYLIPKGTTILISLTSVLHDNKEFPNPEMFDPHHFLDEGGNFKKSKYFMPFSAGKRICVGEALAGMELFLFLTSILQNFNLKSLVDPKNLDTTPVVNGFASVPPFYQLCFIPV

[23] = tested on: H4; test: Luminescence Cell-Based Dose Response HTS to Identify Activators of 5'UTR Stem-Loop Driven Prion Protein mRNA Translation in H4 Neuroglioblastoma Cells. [Related pubchem assays: 1829 (Project Summary), 1814 (Primary HTS)]; type: functional; details: Homo sapiens
[24] = Luminescence Cell-Based Dose Confirmation HTS to Identify Activators of 5'UTR Stem-Loop Driven Alpha-Synuclein mRNA Translation in H4 Neuroglioblastoma Cells. [Related pubchem assays: 1829 (Project Summary), 1814 (Primary HTS)]; type: functional
[25] = target: Cytochrome P450 3A4 (Homo sapiens, UniProt P08684);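 also: CYP3A4 tested as one member of a cytochrome P450 panel screen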
Chain of Cytochrome P450 3A4 (P08684 whole entry): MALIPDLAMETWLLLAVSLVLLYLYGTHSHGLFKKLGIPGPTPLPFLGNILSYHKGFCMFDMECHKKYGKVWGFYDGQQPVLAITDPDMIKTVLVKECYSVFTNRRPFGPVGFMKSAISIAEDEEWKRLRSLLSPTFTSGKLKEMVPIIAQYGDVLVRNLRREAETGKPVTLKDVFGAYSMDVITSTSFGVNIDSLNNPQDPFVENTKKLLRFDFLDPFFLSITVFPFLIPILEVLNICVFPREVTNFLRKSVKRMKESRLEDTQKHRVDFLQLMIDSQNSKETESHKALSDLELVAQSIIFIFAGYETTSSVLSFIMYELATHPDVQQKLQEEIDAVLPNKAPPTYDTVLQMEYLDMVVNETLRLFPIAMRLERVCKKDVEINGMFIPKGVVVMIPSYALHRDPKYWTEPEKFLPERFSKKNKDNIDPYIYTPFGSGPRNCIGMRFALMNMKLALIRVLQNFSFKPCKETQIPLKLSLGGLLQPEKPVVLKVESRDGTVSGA

NC(CSC1(c2cccc3ccccc23)c2ccccc2-c2ccccc21)C(=O)O (centres undefined)
IC50 [1]: 27.7 µM (active) | IC50 [2]: 9.51 µM (active)

COc1ccccc1-c1cc(NC(C)=O)c2ncc(-c3cccc(C(C)=O)c3)n2c1
IC50 [3]: > 79 µM (inactive) | EC50 [4]: > 89.2 µM (inactive)

Cc1nn(C(=O)CCC(=O)NCCc2ccccc2)c2ccccc12
IC50 [5]: > 29.9 µM (inactive) | EC50 [6]: > 29.9 µM (inactive)

COc1ccc(N/N=C/c2c[nH]c3ccccc23)cc1
IC50 [7]: 25.8 µM (active) | IC50 [8]: 19.9 µM (active) | IC50 [9]: 29.5 µM (active) | IC50 [10]: 11.4 µM (active)

CCOCCCN(Cc1ccco1)C(=O)c1cc2c(=O)[nH]c3ccc(C)cc3c2s1
EC50 [4]: > 89.2 µM (inactive)

C[C@H](CO)N1C[C@H](C)[C@@H](CN(C)Cc2ccncc2)Oc2ccc(NC(=O)CCC(F)(F)F)cc2C1=O
AC50 [11]: 23.4 µM (active)

COc1cc(/C=C/c2nc(O)c3ccccc3n2)cc(Br)c1O
IC50 [12]: 88 µM (active) | IC50 [13]: 0.914 µM (active) | IC50 [14]: > 100 µM (inactive)

O=C(N/N=C\C=C\c1ccco1)c1cc(-c2ccc3ccccc3c2)[nH]n1
IC50 [15]: 2.96 µM (active) | IC50 [16]: 3.98 µM (active) | IC50 [1]: 20.3 µM (active) | IC50 [2]: 6.68 µM (active)

CCCCNc1ccc2c(c1)C1CC2CCN1C(=O)OCc1ccccc1 (centres undefined)
AC50 [17]: 76.2 µM (active) | IC50 [18]: > 67.5 µM (inactive) | IC50 [19]: > 67.5 µM (inactive)

COc1cccc(-c2noc(/C=C/c3ccccc3Cl)n2)c1
IC50 [7]: 14 µM (active) | IC50 [8]: 20 µM (active) | IC50 [9]: 18 µM (active) | IC50 [10]: 5.2 µM (active)

Cc1ccc([S+]([O-])Cc2ccc(C(=O)N3CCN(C4CCCCC4)CC3)o2)cc1 (centres undefined)
IC50 [18]: > 67.6 µM (inactive) | IC50 [19]: > 67.6 µM (inactive)

COc1ccc(-n2nc3cc(C)c(NC(C)=O)cc3n2)cc1
IC50 [18]: > 0.278 µM (active) | IC50 [19]: > 67.6 µM (inactive)

CCc1ccc(-c2cc(C(=O)NCc3ccco3)c3ccccc3n2)s1
IC50 [12]: 55.8 µM (active) | IC50 [13]: 40.7 µM (active) | AC50 [20]: 4.47 µM (inconclusive) | EC50 [21]: 5.65 µM (active) | AC50 [22]: 2 µM (inconclusive) | EC50 [23]: 23.9 µM (active) | IC50 [14]: > 100 µM (inactive) | EC50 [24]: 11.2 µM (active) | AC50 [25]: 15.8 µM (inconclusive)
